What was measured:
[1] = test system: Mycobacterium tuberculosis Erdman (autoluminescent); assay: AUC25, normalised area under dose response up to IC25 (three-drug combination) (fraction (0-1)); higher = more potent at low dose
Procedure: (§1)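 DiaMOND equipotent three-drug combination dose responses (10 doses, 1.5- or 2-fold spacing, centred on IC90) against autoluminescent M. tuberculosis Erdman in 8 in vitro models. Read-out is OD600, or luminescence for the intracellular and dormancy models, normalised to untreated wells. Hill-fit Einf, AUC25 and GRinf are potency metrics; FIC50 and FIC90 are total Loewe fractional inhibitory concentrations as log2 (negative = synergy).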

[2] = test system: Mycobacterium tuberculosis Erdman (autoluminescent); assay: total FIC50 (Loewe) at 50% inhibition, three-drug combination (log2); higher = more antagonistic
Procedure: as §1

[3] = test system: Mycobacterium tuberculosis Erdman (autoluminescent); assay: total FIC90 (Loewe) at 90% inhibition, three-drug combination (log2); higher = more antagonistic
Procedure: as §1

[4] = test system: Mycobacterium tuberculosis Erdman (autoluminescent); assay: GRinf, maximum normalised growth rate inhibition (three-drug combination) (unitless (-1 to 1)); higher = less effect (negative = killing)
Procedure: as §1

[5] = test system: Mycobacterium tuberculosis Erdman (autoluminescent); assay: Einf, fitted maximum growth inhibition of three-drug combination (fraction); higher = stronger maximal inhibition
Procedure: as §1

CC(=O)NC[C@H]1CN(c2ccc(N3CCOCC3)c(F)c2)C(=O)O1 [linezolid] + NC(=O)c1cnccn1 [pyrazinamide] + CO[C@H]1/C=C/O[C@@]2(C)Oc3c(C)c(O)c4c(O)c(c(/C=N/N5CCN(C)CC5)c(O)c4c3C2=O)NC(=O)/C(C)=C\C=C\[C@H](C)[C@H](O)[C@@H](C)[C@@H](O)[C@@H](C)[C@H](OC(C)=O)[C@@H]1C [rifampicin]
Conditions	AUC25, [1]	Einf, [5]	GRinf, [4]	total FIC50, [2]	total FIC90, [3]
in vitro model: acidic pH 5.7, time point: constant (~7 days, model-specific)	0.0897	0.883	-0.255	0.175	–
in vitro model: acidic pH 5.7, time point: terminal (~4-5 doublings, model-specific)	0.0731	0.986	-0.249	0.189	–
in vitro model: intracellular J774, time point: constant = terminal	–	0.953	-0.411	–	-0.0717

Conditions	AUC25, [1]	Einf, [5]	GRinf, [4]	total FIC50, [2]	total FIC90, [3]
in vitro model: butyrate, time point: constant (~7 days, model-specific)	0.0912	0.889	0.0887	-0.0235	0.328
in vitro model: butyrate, time point: terminal (~4-5 doublings, model-specific)	0.075	0.94	0.0909	-0.114	-0.413
in vitro model: cholesterol 0.05 mM, time point: constant (~7 days, model-specific)	0.141	0.702	-0.117	–	–
in vitro model: cholesterol 0.05 mM, time point: terminal (~4-5 doublings, model-specific)	0.127	0.929	-0.289	0.713	–
in vitro model: cholesterol-high 0.2 mM, time point: constant (~7 days, model-specific)	0.116	0.926	-0.72	0.321	–
in vitro model: cholesterol-high 0.2 mM, time point: terminal (~4-5 doublings, model-specific)	0.104	0.995	-0.826	0.598	0.554
in vitro model: dormancy (butyrate + nitrate, low O2), time point: constant (~7 days, model-specific)	0.0758	0.893	0.203	0.486	0.378
in vitro model: dormancy (butyrate + nitrate, low O2), time point: terminal (~4-5 doublings, model-specific)	0.0314	0.972	-0.277	0.208	-0.126
in vitro model: standard 7H9 glycerol, time point: constant = terminal	0.0779	0.908	0.119	-0.168	–
in vitro model: valerate, time point: constant (~7 days, model-specific)	0.0571	0.853	0.1	0.122	–
in vitro model: valerate, time point: terminal (~4-5 doublings, model-specific)	0.0305	0.925	0.0656	0.211	-0.35

CC(=O)NC[C@H]1CN(c2ccc(N3CCOCC3)c(F)c2)C(=O)O1 [linezolid] + O=[N+]([O-])c1cn2c(n1)OC[C@@H](OCc1ccc(OC(F)(F)F)cc1)C2 [pretomanid] + CO[C@H]1/C=C/O[C@@]2(C)Oc3c(C)c(O)c4c(O)c(c(/C=N/N5CCN(C6CCCC6)CC5)c(O)c4c3C2=O)NC(=O)/C(C)=C\C=C\[C@H](C)[C@H](O)[C@@H](C)[C@@H](O)[C@@H](C)[C@H](OC(C)=O)[C@@H]1C [rifapentine]
Conditions	AUC25, [1]	Einf, [5]	GRinf, [4]	total FIC50, [2]	total FIC90, [3]
in vitro model: acidic pH 5.7, time point: constant (~7 days, model-specific)	0.0833	0.887	0.0321	0.893	–
in vitro model: acidic pH 5.7, time point: terminal (~4-5 doublings, model-specific)	0.0609	0.978	0.00722	0.838	0.632
in vitro model: intracellular J774, time point: constant = terminal	–	0.953	-0.276	–	0.646

Conditions	AUC25, [1]	Einf, [5]	GRinf, [4]	total FIC50, [2]	total FIC90, [3]
in vitro model: butyrate, time point: constant (~7 days, model-specific)	0.0937	0.91	-0.0425	0.403	0.09
in vitro model: butyrate, time point: terminal (~4-5 doublings, model-specific)	0.0716	0.955	0.0296	0.296	0.336
in vitro model: cholesterol 0.05 mM, time point: constant (~7 days, model-specific)	0.142	0.677	-0.167	0.533	–
in vitro model: cholesterol 0.05 mM, time point: terminal (~4-5 doublings, model-specific)	0.127	0.89	-0.198	0.278	0.6
in vitro model: cholesterol-high 0.2 mM, time point: constant (~7 days, model-specific)	0.0858	0.912	-0.159	0.139	0.124
in vitro model: cholesterol-high 0.2 mM, time point: terminal (~4-5 doublings, model-specific)	0.095	1	-0.71	0.348	0.313
in vitro model: dormancy (butyrate + nitrate, low O2), time point: constant (~7 days, model-specific)	0.0497	0.894	0.223	0.906	0.707
in vitro model: dormancy (butyrate + nitrate, low O2), time point: terminal (~4-5 doublings, model-specific)	0.0403	0.979	-0.0764	0.858	0.899
in vitro model: standard 7H9 glycerol, time point: constant = terminal	0.0904	0.932	-0.132	0.424	0.754
in vitro model: valerate, time point: constant (~7 days, model-specific)	0.159	0.913	-0.446	-1.08	–
in vitro model: valerate, time point: terminal (~4-5 doublings, model-specific)	0.125	0.966	-0.15	-0.336	1.3

From the supplement of paper PMC8617591
